Measurements from PubChem BioAssay AID1963959 (Molecular Pharmacology Branch, DTP, NCI, 2024).

Test system: T-47D spheroids with HUVEC/MSC, viability
Assay: Anticancer human tumor T-47D cell line growth inhibition [PI3K];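 also: spheroids exposed to agents for seven days before reading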;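 as to viability, T/C: percent of DMSO vehicle control luminescence so 100% = untreated growth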
Details: for IC50: curve of first compound; for viability, T/C: stronger effect = lower value
Summary of the method: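 Spheroid viability read-out. Co-cultures contained the tumor line plus HUVEC and human MSCs. Each agent was paired with a PI3K inhibitor (inavolisib, alpelisib, duvelisib, copanlisib) across half-log dilutions starting at clinical Cmax, or at 10 microM when Cmax was unknown.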

Q: For `Cn1ncc(Cl)c1-c1cc(C(=O)NC(CN)Cc2cccc(F)c2)sc1Cl` (configuration not stated) + CC(Nc1ccc2c(c1)OCCn1cc(N3C(=O)OCC3C(F)F)nc1-2)C(N)=O, which IC50 (second compound 0.00316 µM) is on record?
A: The IC50 was greater than 10 µM.

Q: What about the IC50 (second compound 0.01 µM) of the same molecule?
A: The IC50 was greater than 10 µM.

Q: What about the IC50 (second compound 0.0316 µM) of the same molecule?
A: The IC50 was greater than 10 µM.

Q: What about the IC50 (second compound 0.1 µM) of the same molecule?
A: The IC50 was greater than 10 µM.

Q: And the IC50 (second compound 0.316 µM)?
A: Its IC50 is greater than 10 µM.

Q: What about the IC50 (second compound 1 µM) of the same molecule?
A: Its IC50 is less than 0.0316 µM.

Q: What about the viability, T/C (second compound 0.00316 µM, first compound 0.0316 µM) of the same molecule?
A: The viability, T/C was 91.4%.

Q: What about the viability, T/C (second compound 0.00316 µM, first compound 0.1 µM) of the same molecule?
A: Its viability, T/C is 86.4%.

Q: What about the viability, T/C (second compound 0.00316 µM, first compound 0.316 µM) of the same molecule?
A: Its viability, T/C is 80.5%.

Q: And the viability, T/C (second compound 0.00316 µM, first compound 1 µM)?
A: The viability, T/C was 81.8%.

Q: And the viability, T/C (second compound 0.00316 µM, first compound 3.16 µM)?
A: Its viability, T/C is 73.7%.

Q: And the viability, T/C (second compound 0.00316 µM, first compound 10 µM)?
A: The viability, T/C was 81.5%.

Q: What about the viability, T/C (second compound 0.01 µM, first compound 0.0316 µM) of the same molecule?
A: The viability, T/C was 91.2%.

Q: What about the viability, T/C (second compound 0.01 µM, first compound 0.1 µM) of the same molecule?
A: The viability, T/C was 89.6%.

Q: And the viability, T/C (second compound 0.01 µM, first compound 0.316 µM)?
A: The viability, T/C was 82.9%.

Q: And the viability, T/C (second compound 0.01 µM, first compound 1 µM)?
A: The viability, T/C was 70.2%.

Q: And the viability, T/C (second compound 0.01 µM, first compound 3.16 µM)?
A: The viability, T/C was 65.5%.

Q: And the viability, T/C (second compound 0.01 µM, first compound 10 µM)?
A: Its viability, T/C is 87.9%.

Q: What about the viability, T/C (second compound 0.0316 µM, first compound 0.0316 µM) of the same molecule?
A: The viability, T/C was 82.1%.

Q: What about the viability, T/C (second compound 0.0316 µM, first compound 0.1 µM) of the same molecule?
A: Its viability, T/C is 82.7%.

Q: What about the viability, T/C (second compound 0.0316 µM, first compound 0.316 µM) of the same molecule?
A: The viability, T/C was 68.1%.

Q: And the viability, T/C (second compound 0.0316 µM, first compound 1 µM)?
A: Its viability, T/C is 67.8%.

Q: What about the viability, T/C (second compound 0.0316 µM, first compound 3.16 µM) of the same molecule?
A: The viability, T/C was 59.5%.

Q: And the viability, T/C (second compound 0.0316 µM, first compound 10 µM)?
A: Its viability, T/C is 90.9%.

Q: And the viability, T/C (second compound 0.1 µM, first compound 0.0316 µM)?
A: Its viability, T/C is 95.7%.

Q: And the viability, T/C (second compound 0.1 µM, first compound 0.1 µM)?
A: The viability, T/C was 92.7%.

Q: And the viability, T/C (second compound 0.1 µM, first compound 0.316 µM)?
A: Its viability, T/C is 71.8%.

Q: What about the viability, T/C (second compound 0.1 µM, first compound 1 µM) of the same molecule?
A: Its viability, T/C is 55.6%.

Q: What about the viability, T/C (second compound 0.1 µM, first compound 3.16 µM) of the same molecule?
A: Its viability, T/C is 58.9%.

Q: What about the viability, T/C (second compound 0.1 µM, first compound 10 µM) of the same molecule?
A: The viability, T/C was 75%.

Q: And the viability, T/C (second compound 0.316 µM, first compound 0.0316 µM)?
A: Its viability, T/C is 71.4%.

Q: And the viability, T/C (second compound 0.316 µM, first compound 0.1 µM)?
A: Its viability, T/C is 59.7%.

Q: And the viability, T/C (second compound 0.316 µM, first compound 0.316 µM)?
A: Its viability, T/C is 60.8%.

Q: And the viability, T/C (second compound 0.316 µM, first compound 1 µM)?
A: Its viability, T/C is 49.7%.

Q: And the viability, T/C (second compound 0.316 µM, first compound 3.16 µM)?
A: Its viability, T/C is 47.2%.

Q: And the viability, T/C (second compound 0.316 µM, first compound 10 µM)?
A: The viability, T/C was 64.6%.

Q: What about the viability, T/C (second compound 1 µM, first compound 0.0316 µM) of the same molecule?
A: Its viability, T/C is 50.8%.

Q: And the viability, T/C (second compound 1 µM, first compound 0.1 µM)?
A: The viability, T/C was 49.5%.

Q: What about the viability, T/C (second compound 1 µM, first compound 0.316 µM) of the same molecule?
A: The viability, T/C was 49.8%.

Q: And the viability, T/C (second compound 1 µM, first compound 1 µM)?
A: The viability, T/C was 45.5%.

Q: And the viability, T/C (second compound 1 µM, first compound 3.16 µM)?
A: The viability, T/C was 50.3%.

Q: What about the viability, T/C (second compound 1 µM, first compound 10 µM) of the same molecule?
A: The viability, T/C was 59.3%.
